Source: patent publication US12162997B2, “Facile assembly of soft nanoarchitectures and co-loading of hydrophilic and hydrophobic molecules via flash nanoprecipitation” (Northwestern University, priority 2016, dated 2024)
Like-named read-outs stand apart in the source and are kept apart here.

What was measured:
[1] = Loading efficiency of cargo into polymersomes by fluorescence; format: physicochemical; conditions: FNP, single cargo, FIG. 4A
Procedure: The loading efficiency of the target molecule in the nanocarriers by the methods of the present invention is measured as the ratio of target molecule encapsulated within the nanocarrier to the total amount of target molecule available for loading in the initial solution. The loading efficiency is typically greater than about 40% for both proteins and hydrophobic molecules (i.e., […], about 40%, about 45%, about 50%, about 60%, about 70%, about 80%, about 85%, about 90%, or any percentages in between). In some embodiments of the invention, the loading efficiency is greater than at least 45%.
Nanocarriers were formed using the confined impingement jets (CIJ) mixer described by Han et al. PEG-bl-PPS copolymers and hydrophobic molecules to be loaded within polymersomes were dissolved in 500 μL of tetrahydrofuran (THF) and placed into a 1 mL plastic disposable syringe. […] For fluorescence measurements, samples were taken both before and after column purification to assess loading efficiency. […]
Fluorescence and absorbance measurements were taken on a SpectraMax M3 microplate reader (Molecular Devices). All readings were taken in black-walled clear bottom 96-well plates (Corning 07-200-567), at 100 μL volumes. All readings were normalized to a 100 μL 1×PBS blank control. […] NBT diformazan was detected via absorbance at 620 nm.

[2] = ZINC15 database, cited from earlier work

Structure (SMILES)	loading efficiency into polymersomes [1]	logP Values [2]	logP Values ([2]; listed as calcein)
CCOC(=O)c1ccccc1-c1c2cc(Br)c(=O)c(Br)c-2oc2c(Br)c([O-])c(Br)cc12.[K+] [Ethyl Eosin, ethyl eosin]	very high loading efficiencies	–	–
O=C(O)CN(CC(=O)O)Cc1cc2c(cc1O)Oc1cc(O)c(CN(CC(=O)O)CC(=O)O)cc1C21OC(=O)c2ccccc21 [Calcein, calcein]	lowest loading efficiency	1.608	1.6
CO[C@H]1C[C@@H]2CC[C@@H](C)[C@@](O)(O2)C(=O)C(=O)N2CCCC[C@H]2C(=O)O[C@H]([C@H](C)C[C@@H]2CC[C@@H](O)[C@H](OC)C2)CC(=O)[C@H](C)/C=C(\C)[C@@H](O)[C@@H](OC)C(=O)[C@H](C)C[C@H](C)/C=C/C=C/C=C/1C [Rapamycin, rapamycin]	–	6.181	–
